In patent US20240246918A1, “COMPOUNDS AND COMPOSITIONS AS EIF4E INHIBITORS AND THE USES THEREOF” (Ribometrix, Inc., priority 2022, published 2024):
pIC50: −log10 of the molar value.

Tests used:
human eIF4E protein = molecular target: T1, human eIF4E protein (Homo sapiens, UniProt P06730); assay: Biochemical competitive binding assay (TR-FRET competition, EDA-m7GDP-ATTO-647N probe); conditions: read-out: hEIF4E TR-FRET IC50
T1 construct: purchased Novus NBP-45314
Method in brief: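 IC50 values come from 4-parameter fits of the normalized 665/620 nm TR-FRET ratio. Compound was first incubated 15 min with 4 nM recombinant His-eIF4E bound to 2.5 nM Eu-anti-His antibody, then 15 min with 5 nM m7GDP-ATTO-647N tracer, in pH 7.5 HEPES buffer with 100 mM KCl, Tween-20 and BSA.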

[1] = test system: COLO 205 colorectal tumor cells; assay: Tumor cell viability inhibition assay (CellTiter-Glo 2.0, 72 hours); assay type: cell-based; conditions: COLO 205 cell viability
Method in brief: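 IC50 derived by 4-parameter fitting after normalizing luminescence to DMSO and max-inhibition wells. Compounds tested as 11 concentrations in 4-fold steps on COLO 205 cells seeded at 1500 per well in RPMI-1640/10% FBS; ATP content measured with CellTiter-Glo 2.0 after 72 h.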

T1 sequence (P06730 whole entry): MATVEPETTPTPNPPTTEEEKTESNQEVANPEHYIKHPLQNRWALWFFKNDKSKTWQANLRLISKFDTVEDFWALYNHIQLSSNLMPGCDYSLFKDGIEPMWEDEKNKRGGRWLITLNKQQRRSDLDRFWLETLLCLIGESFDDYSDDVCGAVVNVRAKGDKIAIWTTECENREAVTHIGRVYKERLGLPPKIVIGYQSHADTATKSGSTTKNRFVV

| pIC50 (human eIF4E protein) | pIC50 ([1]; Homo sapiens, COLO 205, 72 h) | pIC50 [1] | Compound |
| --- | --- | --- | --- |
| > 7.00 | > 5.30 |  | Cc1cc(-c2cc(Cl)ccc2OCCn2c(C)nc3c(c2=O)C[C@@H](N2CCC(C(F)(F)F)CC2)CC3)c2scc(C(=O)O)c2n1 (single isomer, unassigned) [Compound 374] |
| > 7.00 | > 5.30 |  | Cc1csc([C@H]2CCCN([C@@H]3CCc4nc(C)n(CCOc5ccc(Cl)cc5-c5cc(C)nc6c(C(=O)O)csc56)c(=O)c4C3)C2)n1 (single isomer, unassigned) [Compound 483] |
| > 7.00 | 4.70 to 5.30 |  | Cc1cc(-c2cc(Cl)ccc2OCCn2c(C)nc3c(c2=O)C[C@@H](N2CCC(n4ccnn4)CC2)CC3)c2scc(C(=O)O)c2n1 (single isomer, unassigned) [Compound 423] |
| > 7.00 | > 5.30 |  | Cc1cc(-c2cc(Cl)ccc2OCCn2c(C)nc3c(c2=O)C[C@H](N2Cc4cc(F)c(F)cc4C2)CC3)c2scc(C(=O)O)c2n1 (single isomer, unassigned) [Compound 532] |
| > 7.00 |  | > 5.30 | Cc1cc(-c2cc(Cl)ccc2OCCn2c(C)nc3c(c2=O)CC(N2CCC(C(F)(F)F)CC2)CC3)c2scc(C(=O)NS(C)(=O)=O)c2n1 (single isomer, unassigned) [Compound 433] |
| > 7.00 |  | > 5.30 | Cc1cc(-c2cc(Cl)ccc2OCCn2c(C)nc3c(c2=O)CC(N2CCC4(CCN(CC(F)(F)F)C4)C2)CC3)c2scc(C(=O)O)c2n1 (single isomer, unassigned) [Compound 506] |
| > 7.00 | > 5.30 |  | Cc1cc(-c2cc(Cl)ccc2OCCn2c(C)nc3c(c2=O)C[C@H](N2CCCC[C@@H]2c2cccc(F)c2)CC3)c2scc(C(=O)O)c2n1 (single isomer, unassigned) [Compound 541] |
| 5.30 to 6.30 |  | < 4.70 | Cc1cc(-c2cc(Cl)c(=O)[nH]c2OCCn2c(C)nc3c(c2=O)CC(N(C)C2CC2)CC3)c2scc(C(=O)O)c2n1 (single isomer, unassigned) [Compound 234] |
| > 7.00 | 4.70 to 5.30 |  | Cc1cc(-c2cc(Cl)ccc2OCCn2c(C)nc3c(c2=O)C[C@@H](N2CCC(N4CC(F)(F)C4)CC2)CC3)c2scc(C(=O)O)c2n1 (single isomer, unassigned) [Compound 110] |
| > 7.00 | > 5.30 |  | Cc1cc(-c2cc(Cl)ccc2OCCn2c(C)nc3c(c2=O)C[C@@H](N2CCC[C@H](C(F)(F)F)C2)CC3)c2scc(C(=O)O)c2n1 (single isomer, unassigned) [Compound 384] |
| > 7.00 | > 5.30 |  | Cc1cc(-c2cc(Cl)ccc2OCCn2c(C)nc3c(c2=O)C[C@H](N2CCC[C@]4(C2)CC4(F)F)CC32CC2)c2scc(C(=O)O)c2n1 (single isomer, unassigned) [Compound 581] |
| > 7.00 | > 5.30 |  | [2H]C([2H])([2H])N(Cc1ccnc(OC)c1)C1CCc2nc(C)n(CCOc3ccc(Cl)cc3-c3cc(C)nc4c(C(=O)O)csc34)c(=O)c2C1 (centres unmarked) [Compound 125, 7-(5-chloro-2-(2-(6-(((2-methoxypyridin-4-yl)methyl)(methyl-d3)amino)-2-methyl-4-oxo-5,6,7,8-tetrahydroquinazolin-3(4H)-yl)ethoxy)phenyl)-5-methylthieno[3,2-b]pyridine-3-carboxylic acid] |
| > 7.00 | > 5.30 |  | Cc1cc(-c2cc(Cl)ccc2OCCn2c(C)nc3c(c2=O)C[C@H](N2CC4(CCC(F)(F)CC4)C2)CC3)c2scc(C(=O)O)c2n1 (single isomer, unassigned) [Compound 131] |
| > 7.00 | 4.70 to 5.30 |  | Cc1cc(-c2cc(Cl)ccc2OCCn2c(C)nc3c(c2=O)C[C@H](N2CC[C@@H](OC(F)(F)F)C(C)(C)C2)CC3)c2scc(C(=O)O)c2n1 (single isomer, unassigned) [Compound 395] |
| > 7.00 | > 5.30 |  | Cc1cc(-c2cc(Cl)ccc2OCCn2c(C)nc3c(c2=O)C[C@H](N2CCCC[C@H]2c2cccc(F)c2)CC3)c2scc(C(=O)O)c2n1 (single isomer, unassigned) [Compound 540] |
| > 7.00 | > 5.30 |  | Cc1cc(-c2cc(Cl)ccc2OCCn2c(C)nc3c(c2=O)CC(N2CCC4(CC2)CC4(F)F)CC32CC2)c2scc(C(=O)NS(C)(=O)=O)c2n1 (single isomer, unassigned) [Compound 632] |
| > 7.00 | > 5.30 |  | Cc1cc(-c2cc(Cl)ccc2OCCn2c(C)nc3c(c2=O)CC(N2CCC(OC(F)(F)F)CC2)CC3)c2scc(C(=O)O)c2n1 (single isomer, unassigned) [Compound 135] |
| > 7.00 | > 5.30 |  | COC1(C)CCN(C2CCc3nc(C)n(CCOc4ccc(Cl)cc4-c4cc(C)nc5c(C(=O)O)csc45)c(=O)c3C2)CC1 (centres unmarked) [Compound 134] |
| > 7.00 | > 5.30 |  | Cc1cc(-c2cc(Cl)ccc2OCCn2c(C)nc3c(c2=O)C[C@H](N2CCC[C@H](C(F)F)C2)CC3)c2scc(C(=O)O)c2n1 (single isomer, unassigned) [Compound 117] |
| > 7.00 | > 5.30 |  | Cc1cc(-c2cc(Cl)ccc2OCCn2c(C)nc3c(c2=O)C[C@H](N2C[C@H]4CC[C@@H]2CC4OC(F)(F)F)CC32CC2)c2scc(C(=O)O)c2n1 (single isomer, unassigned) [Compound 606] |
| > 7.00 | > 5.30 |  | Cc1cc(-c2cc(Cl)ccc2OCCn2c(C)nc3c(c2=O)CC(N2CCC(c4cccs4)CC2)CC3)c2scc(C(=O)O)c2n1 (centres unmarked) [Compound 130] |
| > 7.00 | > 5.30 |  | Cc1cc(-c2cc(Cl)ccc2OCCn2c(C)nc3c(c2=O)C[C@H](N2C[C@@H]4CC[C@H]2CC4OC(F)(F)F)CC32CC2)c2scc(C(=O)O)c2n1 (single isomer, unassigned) [Compound 604] |
| > 7.00 | 4.70 to 5.30 |  | Cc1cc(-c2cc(Cl)ccc2OCCn2c(C)nc3c(c2=O)C[C@@H](N2CC[C@H](OC(F)(F)F)C(F)(F)C2)CC3)c2scc(C(=O)O)c2n1 (single isomer, unassigned) [Compound 406] |
| > 7.00 | > 5.30 |  | Cc1cc(-c2cc(Cl)ccc2OCCn2c(C)nc3c(c2=O)C[C@@H](N2CC4(CCC(F)(F)CC4)C2)CC3)c2scc(C(=O)O)c2n1 (single isomer, unassigned) [Compound 128] |
| > 7.00 | > 5.30 |  | Cc1cc(-c2cc(Cl)ccc2OCCn2c(C)nc3c(c2=O)C[C@H](N2CCC4(CC2)CC4(F)F)CC32CC2)c2scc(C(=O)O)c2n1 (single isomer, unassigned) [Compound 564] |
| > 7.00 |  | > 5.30 | Cc1cc(-c2cc(Cl)ccc2C#CCn2c(C)nc3c(c2=O)CC(C)(N2CCCC4(C2)CC4(F)F)CC3)c2scc(C(=O)O)c2n1 (single isomer, unassigned) [Compound 614] |
| > 7.00 | > 5.30 |  | Cc1cc(-c2cc(Cl)ccc2OCCn2c(C)nc3c(c2=O)C[C@H](N2CC[C@H](OC(F)(F)F)C2)CC3)c2scc(C(=O)O)c2n1 (single isomer, unassigned) [Compound 386] |

| Compound | pIC50 (human eIF4E protein) | pIC50 ([1]; Homo sapiens, COLO 205, 72 h) | pIC50 [1] |
| --- | --- | --- | --- |
| Cc1cc(-c2cc(Cl)ccc2OCCn2c(C)nc3c(c2=O)CC(N2CC4CC(C2)C4(F)F)CC3)c2scc(C(=O)O)c2n1 (single isomer, unassigned) [Compound 361] | > 7.00 | > 5.30 |  |
